{
  "source": "patent US20230181905A1",
  "about": "“Systems, Devices, and Methods for Enhancing the Neuroprotective Effects of Non-Invasive Gamma Stimulation with Pharmacological Agents” (Massachusetts Institute of Technology, priority 2021, published 2023)",
  "type_in_all_cases": "in vivo, mouse",
  "key": {"amyloid plaques (D54D2)": {"tested_on": "amyloid plaques (D54D2)", "experiment": "D54D2 amyloid plaque staining in APOE4-KI 5×FAD hippocampus", "conditions": "APOE4-KI 5×FAD mice, PLX3397 diet combined with 21 days A+V GENUS", "protocol": "Given that APOE4+ individuals accumulate A #earlier than non-carriers, and that APOE facilitates the response of microglia to amyloid, GENUS outcomes in an APOE4-KI amyloid model were examined. To this end, 21d A+V (audio and visual) GENUS in APOE-KI 5×FAD model was performed and amyloid and microglial outcomes were examined.\nNext, 7-8 month old male APOE4-KI 5×FAD animals were treated with 3 weeks of PLX3397 diet (or control), followed by 21 days of A+V GENUS, during which animals remained on their diets (FIG. 37)."}, "aggrecan": {"tested_on": "aggrecan", "experiment": "Aggrecan immunohistochemistry around PV interneurons", "conditions": "5×FAD mice, visual cortex; Plx3397 50 days", "source_text": "These observations led to examination of the effect of Plx3397 administration on neuronal integrity. […] Indeed, it was observed that Plx3397 administration increased WFA+(Wisteria floribunda agglutinin, a PNN marker) PNN signals (au, 289400000±9384029 versus 213000000±16633300 in controls) (FIG. 22A, 22F), while aggrecan (a component in PNN) signals were […] specifically around PV interneurons in Plx3397 administered 5×FAD mice (12.34±0.4791 versus 7.837±0.3549 in controls) (FIG. 22A, 22G)."}, "[1]": {"tested_on": "myelin basic protein (MBP)", "experiment": "MBP levels and myelination of PV axons", "conditions": "5×FAD mice", "source_text": "It was next sought to understand whether Plx3397 administration-dependent electrophysiological alterations were attributed to changes in amyloid plaque levels. […] In the cuprizone model of demyelination, Plx33977 administration preserved myelin. It was thus considered whether electrophysiological alterations are associated with myelin levels in Plx3397 treated 5×FAD mice.\nThese observations point to synaptic connectivity, PNN extracellular architecture, and myelination as biological processes that GENUS impacts to improve the outcomes in Plx3397 administered 5×FAD mice. To further validate this, additional biochemical analyses were performed. […] Next, it was observed that Plx3397 (130.4±7.178), GENUS (116.2±5.225) and Plx3397+GENUS (119.0±6.325) all increased the WFA signals with the highest levels in Plx3397 alone group compared to controls (100±4.655) (FIGS. 25D, 25F). […] Synaptic input arriving within the PNN of parvalbumin (PV) interneurons and the PNN architecture are shown to modulate the activity of PV interneurons robustly. […] Next, although the total MBP levels was not affected (100±19.58, 132.4±30.10, 140.2±25.31, & 133.4±22.13 in control, Plx3397, GENUS, Plx3397+Genus groups, respectively), GENUS increased myelin ensheathment of axons of PV interneurons in Plx3397 administered 5×AFAD mice (20.75±1.45, 25.44±2.83, 37.91±4.56, & 31.3±3.21) (FIGS. 25D, 25H, 25I and FIG. 30C). Collectively, these findings show improved synaptic connectivity and axonal myelination of PV interneurons after repeated GENUS in Plx3397 administered 5×FAD mice."}},
  "data": [
    {"smiles": "FC(F)(F)c1ccc(CNc2ccc(Cc3c[nH]c4ncc(Cl)cc34)cn2)cn1", "note": "[Plx3397, Pexidartinib]", "values": [
      {"measurement": "amyloid plaque number", "setting": "amyloid plaques (D54D2); hippocampus CA1", "result": "significant reduction"},
      {"measurement": "amyloid total area", "setting": "amyloid plaques (D54D2)", "result": "significant reduction"},
      {"measurement": "amyloid staining mean intensity", "setting": "amyloid plaques (D54D2); vs standard diet", "result": "significant reduction"},
      {"measurement": "aggrecan signals around PV interneurons", "setting": "aggrecan", "result": "12.34±0.4791"},
      {"measurement": "MBP levels", "setting": "[1]; hippocampus, chronic Plx3397 vs control", "result": "did not affect"},
      {"measurement": "overall MBP signals", "setting": "[1]; visual cortex, Plx3397 50 days, not significantly affected", "result": "953800000±1277515477", "unit": "au"},
      {"measurement": "total MBP levels", "setting": "[1]; western blot, control 100±19.58, not affected", "result": "132.4±30.10"},
      {"measurement": "myelin ensheathment of axons of PV interneurons", "setting": "[1]; control 20.75±1.45", "result": "25.44±2.83"}
    ]}
  ]
}
